ChEMBL document CHEMBL3885861, “Open TG-GATES”

Species on record: Rattus norvegicus
Assay: Open TG-GATES - Regimen: Single
Type: toxicity, organism-based, Sprague-Dawley
Set-up: regimen Single, gender Male, age 6 weeks
Conditions: in vivo, po, 15 mg/kg, route gavage, dose level Middle; for APTT / Bas / Eos / Fbg / Hb / Ht / Lym / MCH / MCHC / MCV / Mono / Neu / PT / Plat / RBC / Ret / WBC: tissue Blood; for LIVER: tissue Liver; for A/G / ALP / ALT / AST / BUN / CRE / Ca / Cl / DBIL / GLC / IP / K / LDH / Na / PL / RALB / TBIL / TC / TG / TP / gamma-GTP: tissue Plasma

## C=C(C)[C@H]1Cc2c(ccc3c2O[C@@H]2COc4cc(OC)c(OC)cc4[C@@H]2C3=O)O1 [ROTENONE]
3 h
  TERMINAL_BW: 196.9 g
  APTT: 16.9 s
  Bas: 0%
  Eos: 0.8%
  Fbg: 214 mg/dL
  Hb: 13.1 g/dL
  Ht: 40.1%
  Lym: 63.8%
  MCH: 20.7 pg
  MCHC: 32.6%
  MCV: 63.4 fL
  Mono: 13.6%
  Neu: 22%
  PT: 12.4 s
  Plat: 122.6 x10_4/uL
  RBC: 634 x10_4/ul
  Ret: 8.9%
  WBC: 89.2 x10_2/uL
  LIVER: 8.7 g
  A/G: 2.4
  ALP: 1502.2 IU/L
  ALT: 37.8 IU/L
  AST: 71.4 IU/L
  BUN: 14.2 mg/dL
  CRE: 0.4 mg/dL
  Ca: 10.9 mg/dL
  Cl: 104.2 meq/L
  DBIL: 0.01 mg/dL
  GLC: 191.6 mg/dL
  IP: 8.8 mg/dL
  K: 4 meq/L
  LDH: 106.6 IU/L
  Na: 141 meq/L
  PL: 126.8 mg/dL
  RALB: 3.9 g/dL
  TBIL: 0.038 mg/dL
  TC: 82 mg/dL
  TG: 37.4 mg/dL
  TP: 5.5 g/dL
  gamma-GTP: 0.8 IU/L
6 h
  TERMINAL_BW: 198.2 g
  APTT: 16.4 s
  Bas: 0%
  Eos: 0.8%
  Fbg: 209.6 mg/dL
  Hb: 13.2 g/dL
  Ht: 40.1%
  Lym: 75.8%
  MCH: 21 pg
  MCHC: 32.9%
  MCV: 63.9 fL
  Mono: 5.4%
  Neu: 18.2%
  PT: 12.4 s
  Plat: 127.4 x10_4/uL
  RBC: 628.4 x10_4/ul
  Ret: 8.2%
  WBC: 100.4 x10_2/uL
  LIVER: 8.7 g
  A/G: 2.3
  ALP: 1188.8 IU/L
  ALT: 33.6 IU/L
  AST: 68 IU/L
  BUN: 11.8 mg/dL
  CRE: 0.4 mg/dL
  Ca: 11 mg/dL
  Cl: 103.8 meq/L
  DBIL: 0.01 mg/dL
  GLC: 194 mg/dL
  IP: 9.7 mg/dL
  K: 4 meq/L
  LDH: 84.2 IU/L
  Na: 140.6 meq/L
  PL: 139.2 mg/dL
  RALB: 3.7 g/dL
  TBIL: 0.044 mg/dL
  TC: 79.8 mg/dL
  TG: 74.6 mg/dL
  TP: 5.4 g/dL
  gamma-GTP: 0.4 IU/L
9 h
  TERMINAL_BW: 198.7 g
  APTT: 16.4 s
  Bas: 0%
  Eos: 0.2%
  Fbg: 217 mg/dL
  Hb: 12.7 g/dL
  Ht: 38.7%
  Lym: 79.2%
  MCH: 21 pg
  MCHC: 32.9%
  MCV: 63.7 fL
  Mono: 6.8%
  Neu: 13.6%
  PT: 12.7 s
  Plat: 133.8 x10_4/uL
  RBC: 607.8 x10_4/ul
  Ret: 8.8%
  WBC: 91.4 x10_2/uL
  LIVER: 8.3 g
  A/G: 2.4
  ALP: 1265 IU/L
  ALT: 29.8 IU/L
  AST: 65.6 IU/L
  BUN: 10.4 mg/dL
  CRE: 0.4 mg/dL
  Ca: 11.4 mg/dL
  Cl: 104.2 meq/L
  DBIL: 0.01 mg/dL
  GLC: 186 mg/dL
  IP: 10 mg/dL
  K: 4.1 meq/L
  LDH: 103.8 IU/L
  Na: 139.8 meq/L
  PL: 132.2 mg/dL
  RALB: 3.7 g/dL
  TBIL: 0.044 mg/dL
  TC: 79.2 mg/dL
  TG: 40 mg/dL
  TP: 5.2 g/dL
  gamma-GTP: 1 IU/L
24 h
  TERMINAL_BW: 213.8 g
  APTT: 15.5 s
  Bas: 0%
  Eos: 0.8%
  Fbg: 216 mg/dL
  Hb: 12.8 g/dL
  Ht: 38.8%
  Lym: 78.6%
  MCH: 21.5 pg
  MCHC: 32.9%
  MCV: 65.3 fL
  Mono: 5.6%
  Neu: 15%
  PT: 11.8 s
  Plat: 113 x10_4/uL
  RBC: 595 x10_4/ul
  Ret: 8.1%
  WBC: 100 x10_2/uL
  LIVER: 11 g
  A/G: 2.6
  ALP: 1529.4 IU/L
  ALT: 36 IU/L
  AST: 67 IU/L
  BUN: 17.2 mg/dL
  CRE: 0.4 mg/dL
  Ca: 11.6 mg/dL
  Cl: 104.2 meq/L
  DBIL: 0.012 mg/dL
  GLC: 187 mg/dL
  IP: 7.4 mg/dL
  K: 4.4 meq/L
  LDH: 112.8 IU/L
  Na: 140.4 meq/L
  PL: 168.4 mg/dL
  RALB: 4 g/dL
  TBIL: 0.032 mg/dL
  TC: 88.8 mg/dL
  TG: 152 mg/dL
  TP: 5.6 g/dL
  gamma-GTP: 0.4 IU/L
